Reference: BigSolDB 2.1

Nc1nnn[nH]1
solubility (mole fraction)
Conditions | 283.15 K | 288.15 K | 293.15 K | 298.15 K | 303.15 K | 308.15 K | 313.15 K | 318.15 K | 323.15 K
in 1,4-dioxane | – | 0.0178 | 0.0217 | 0.0267 | 0.0328 | 0.0393 | 0.0463 | 0.0551 | 0.0652
in DMF | 0.0284 | 0.0326 | 0.038 | 0.0437 | 0.0493 | 0.0559 | 0.0628 | 0.0707 | 0.0795
in NMP | 0.0223 | 0.0265 | 0.0312 | 0.0366 | 0.0432 | 0.0502 | 0.0577 | 0.0657 | 0.0741
in acetone | 0.000749 | 0.000832 | 0.000916 | 0.00102 | 0.00112 | 0.00123 | 0.00135 | 0.00149 | 0.00162
in acetonitrile | 0.000193 | 0.000213 | 0.000235 | 0.000256 | 0.00028 | 0.000304 | 0.000329 | 0.000357 | 0.000385
in ethanol | 0.0008 | 0.000896 | 0.00099 | 0.00109 | 0.00121 | 0.00133 | 0.00145 | 0.0016 | 0.00175
in ethyl acetate | 0.000499 | 0.000572 | 0.000649 | 0.000734 | 0.000834 | 0.000943 | 0.00107 | 0.00122 | 0.00139
in isopropanol | 0.000762 | 0.000853 | 0.000946 | 0.00105 | 0.00116 | 0.00128 | 0.00141 | 0.00154 | 0.00169
in methanol | 0.000615 | 0.000681 | 0.000764 | 0.000858 | 0.000954 | 0.00106 | 0.00118 | 0.00131 | 0.00147
in n-butanol | 0.000455 | 0.00051 | 0.000577 | 0.00066 | 0.000755 | 0.000869 | 0.001 | 0.00115 | 0.00131
in n-propanol | 0.000694 | 0.000773 | 0.000868 | 0.000962 | 0.00106 | 0.00117 | 0.00129 | 0.00142 | 0.00157
in toluene | 0.00135 | 0.00156 | 0.00177 | 0.00201 | 0.00229 | 0.0026 | 0.00295 | 0.00335 | 0.00381
